“Also recorded” adds a separate entry of the source. Counter-ions that a name gives are not always drawn.
Key:
[1] = tested on: systemic venous norepinephrine; assay: BEST trial, peripheral venous norepinephrine and haemodynamic changes; assay type: in vivo, human; settings: for NE change @ 3 mos, mean ± SD: Bucindolol Inter subgroup (Δ NE −244.5, ≦ +145), hydrochloride
Method: Because of an initial delay in setting up the procedures, collection of blood samples for norepinephrine in all randomized patients began 6 months after trial initiation.
Peripheral venous NE samples were drawn at baseline, 3 and 12 months by inserting a 21 gauge butterfly needle into an arm vein and placing the subject in a quiet room in a supine position for 30 minutes. The initial 3 ml of blood was discarded, and then 5 ml of blood was withdrawn and immediately transferred to pre-chilled 5 ml tubes containing EDTA. Within 30 min plasma was separated and frozen at −70° C. Sites shipped samples on dry ice to a central laboratory (LabCorp, Raritan, N.J.) every 3 mo, where the samples were stored at −85° C. and assayed within 3 weeks. NE was measured by HPLC-electrochemical detection using the Bio-Rad HPLC method (Bio-Rad Laboratories Hercules, Calif.). Quality control included re-measuring all samples with initial values of <200 pg/ml or >2000 pg/ml, from the 2nd stored tube; and routinely (every 20 samples) measuring known amounts.
Means and standard deviations (SD) for continuous data, and proportions or percentages for categorical data are presented. T-tests or Wilcoxon rank sum tests were used for continuous data, and chi-square or Fisher's exact test for categorical data. An alpha level of 0.05 (2 tailed, unadjusted) was used to indicate statistical significance.

[2] = tested on: advanced heart failure patients; assay: proposed bucindolol vs metoprolol CR/XL trial (Study Design II); assay type: in vivo, human
From the text: In Study Design II (FIG. 28) for an additional study design, patients with symptomatic and advanced heart failure (reinforced by the heart failure hospitalization history over the preceding year; therefore, patients who are Class II at the time of screening are allowed in the trial) and LVEFs≦0.35 (the general description of the BEST Trial population) are initially screened for the absence of the α2c 322-325 DEL polymorphism, in the carrier state (either heterozygous or homozygous). […]
The primary endpoint of the trial is noninferiority against metoprolol CR/XL (TOPROL-XL), using the 95% upper confidence limit (UCL) of the time to mortality plus heart failure hospitalization endpoint hazard ratio that was measured in the MERIT-HF trial (Hjalmarson et al. 2000). […] The 95% upper confidence limit for the hazard ratio (UCL) for bucindolol:metoprolol CR/XL (“noninferiority margin”) has been determined from the formula (Hasselblad et al., 2001) {(UCL bucindolol:metoprolol CR/XL)*(UCL metoprolol CR/XL:placebo)≦1.0}; using the MERIT-HF entire cohort UCL of 0.80 for metoprolol:placebo yields x*0.80≦1.0, or a noninferiority margin x≦1.25. […]

[3] = tested on: failing human right ventricular trabeculae; assay: contractile response of isolated right ventricular trabeculae from failing human hearts; settings: hydrochloride
Method: Nonfailing hearts were obtained from local potential organ donors whose hearts were not transplanted because of physical or ABO blood type incompatibility. Failing hearts were from patients with end-stage heart failure due to ischemic or non-ischemic dilated cardiomyopathies who underwent cardiac transplantation. The demographic characteristics of the hearts are provided in Results. The contractile response of isolated, field stimulated, human trabeculae was assessed as previously described {1755; a-c}. Trabeculae of uniform size (1 to 2×6 to 8 mm) were mounted in 80 ml muscle bath chambers in Tyrode's solution at pH 7.45 bubbled with 95% O2-5% CO2 at 36^0. After equilibration, a tension of 75% of Lmax was applied to each individual trabeculum. Field-stimulation by a 5-ms pulse at 10% above threshold was then applied, and after equilibration full dose-response curves to isoproterenol, bucindolol or xamoterol were performed using the indicated concentrations and application of increasing doses every 5 minutes. In experiments in which forskolin was used to enhance signal transduction {e,f}, 10^−6 M of this adenylyl cyclase activator was applied to the tissue baths 15-20 minutes prior to the performance of dose-response curves, and allowed to achieve stability of tension response. Systolic tension at each dose was calculated as the stimulated tension in mN/mm^2 minus baseline tension. The maximum tension, concentration of isoproterenol that produced 50% of the maximum developed tension (EC50) and curve slope were computed by nonlinear repeated measures analysis of covariance. […] Statistical methods were employed as described in Examples 3 and 4.

β1-Gly389 receptor = molecular target: T1, β1-Gly389 receptor (Homo sapiens, UniProt P08588); assay: 125I-cyanopindolol competition binding in transfected cells; settings: 125I-CYP competition, n=3; read-out: affinity for bucindolol (pKi) (converted)
T1 construct: expressed in transfected cells
T1 sequence (P08588 whole entry): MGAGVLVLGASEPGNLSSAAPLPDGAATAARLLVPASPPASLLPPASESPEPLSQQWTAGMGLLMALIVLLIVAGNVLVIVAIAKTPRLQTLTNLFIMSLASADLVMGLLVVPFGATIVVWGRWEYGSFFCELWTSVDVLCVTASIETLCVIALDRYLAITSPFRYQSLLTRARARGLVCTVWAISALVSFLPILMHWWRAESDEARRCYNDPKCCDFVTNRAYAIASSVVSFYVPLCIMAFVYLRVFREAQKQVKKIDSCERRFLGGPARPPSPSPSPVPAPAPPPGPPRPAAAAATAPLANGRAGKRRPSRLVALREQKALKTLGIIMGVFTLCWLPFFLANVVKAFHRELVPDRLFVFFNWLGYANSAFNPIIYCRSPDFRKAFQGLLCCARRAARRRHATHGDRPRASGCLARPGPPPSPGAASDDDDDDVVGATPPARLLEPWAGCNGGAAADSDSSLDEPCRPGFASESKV
Method: (§1) Chinese hamster fibroblasts were stably transfected using constructs previously described so as to separately express the human β1-Arg389 or β1-Gly389 receptors. β1AR expression, and affinity for bucindolol, were determined by radioligand binding studies with ^125I-cyanopindolol (125I-CYP), using 1 μM propranolol to define nonspecific binding as described. Whole cell cAMP accumulation studies were carried out by the [^3H]-adenine method using two lines with equivalent expression levels of the two receptors as indicated. Attached cells were exposed to vehicle (basal), 10 μM norepinephrine or 10 uM norepinephrine with the indicated concentrations of bucindolol for 15 min at 37° C.

β1-Arg389 receptor = molecular target: T2, β1-Arg389 receptor (Homo sapiens, UniProt P08588, G389R); assay: as above; settings: 125I-CYP competition, n=3; read-out: affinity for bucindolol (pKi) (converted)
T2 construct: expressed in transfected cells
T2 sequence (P08588 whole entry G389R): as the sequence (P08588 whole entry) above, with G389R counted along it
Method: as §1

SMILES: CC(C)(Cc1c[nH]c2ccccc12)NCC(O)COc1ccccc1C#N (centres unmarked) [bucindolol, (2-{2-hydroxy-3{{2-(3-indolyl)-1,1-dimethylethyl}amino}propoxy}-benzonitrile hydrochloride)]
- decrease in norepinephrine relative to changes in the placebo group ([1]; 3 months): 19%
- decrease in norepinephrine relative to changes in the placebo group ([1]; 12 months): 13%
- average decrease in norepinephrine at 3 months ([1]; 153 bucindolol subjects at higher mortality risk with norepinephrine reduction): 529 pg/mL
- Change in SBP @ 12 mos ([1]; Bucindolol Incr subgroup): −0.9 ± 16.8 mm Hg
- HR (heart rate) change @ 12 mos ([1]; Bucindolol Incr subgroup): −8.1 ± 14.6 BPM
- Change in LVEF @ 3 mos ([1]; Bucindolol Inter subgroup): 5.7 ± 7.9 EFU
- Change in SBP @ 3 mos ([1]; Bucindolol Inter subgroup): −0.5 ± 15.7 mm Hg
- Change in SBP @ 12 mos ([1]; Bucindolol Inter subgroup): 0.7 ± 18.0 mm Hg
- HR (heart rate) change @ 3 mos ([1]; Bucindolol Inter subgroup): −9.7 ± 12.4 BPM
- HR (heart rate) change @ 12 mos ([1]; Bucindolol Inter subgroup): −7.9 ± 13.5 BPM
- NE change @ 3 mos, mean ± SD ([1]; n = 551): -44 pg/mL
- NE change @ 3 mos, mean ± SD ([1]; n = 551, listed as Bucindolol): -44 ± 103 pg/mL
- NE change @ 12 mos, mean ± SD ([1]; Bucindolol Inter subgroup, n = 551): 17.5 ± 216 pg/mL
- Change in SBP @ 3 mos ([1]; Bucindolol Redxn subgroup): −0.7 ± 18.2 mm Hg
- Change in SBP @ 12 mos ([1]; Bucindolol Redxn subgroup): 2.7 ± 20.1 mm Hg
- proportion of bucindolol-treated patients with marked norepinephrine reduction at 3 months ([1]; NE reduction ≧244.5 pg/ml): 18%
- average reduction in norepinephrine at 3 months (SEM) ([1]; α2c DEL 322-325 carriers): 153 ± 57 pg/mL
- average reduction in norepinephrine at 3 months (SEM) ([1]; α2c WT/WT patients): 50 ± 13 pg/mL
- expected hazard ratio bucindolol vs. metoprolol CR/XL, mortality plus HF hospitalization ([2]; α2c WT/WT U.S. population, 0.72/0.84): 0.86
- expected hazard ratio bucindolol:metoprolol CR/XL, mortality+HF hospitalizations ([2]; β1-389 Arg/Arg + α2c wild type vs MERIT U.S. data, 0.61/0.84): 0.73
- intrinsic sympathomimetic activity (increase in force) ([3]; failing hearts, with and without forskolin): no significant increase in force development; also recorded: no evidence of ISA
- inotropic effect on systolic force (dose-response curve slope) ([3]; β1AR Arg/Arg, forskolin pretreatment): inverse agonist; also recorded: negative curve slope
- inotropic effect on systolic force (dose-response curve slope) ([3]; β1AR Gly carriers, forskolin pretreatment): neutral antagonist; also recorded: not different from 0
- inotropic effect on systolic force (dose-response curve slope) ([3]; β1AR Gly carriers, without forskolin): inverse agonist; also recorded: negative inotropic effect
- Ki (β1-Gly389 receptor): 0.251 nM
- Ki (β1-Arg389 receptor): 0.251 nM

From patent US8093286B2, “Methods for treatment with bucindolol based on genetic targeting” (The Regents of the University of Colorado, a body corporate, priority 2004, dated 2012)
